Measured values reported in patent US20220332699A1 (SAGE THERAPEUTICS, INC., priority 2019, published 2022).

What follows are molecules tested against CYP46A1 (Homo sapiens, UniProt Q9Y6A2) (assay: CYP46A1 Enzyme Assay 2 (testosterone substrate, HPLC-MS)). Conditions: read-out: IC50 (CYP46A1 inhibitory activity).
Type: biochemical
How it was run: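 CYP46A1 (5 μM final) with testosterone ([…] final) preincubated with compound 30 min at 37° C, reaction started with NADPH-generating system and run 15 min at 37° C. Quenched in methanol containing diclofenac internal standard; product read by HPLC-MS.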

Chain of CYP46A1 (Q9Y6A2 whole entry): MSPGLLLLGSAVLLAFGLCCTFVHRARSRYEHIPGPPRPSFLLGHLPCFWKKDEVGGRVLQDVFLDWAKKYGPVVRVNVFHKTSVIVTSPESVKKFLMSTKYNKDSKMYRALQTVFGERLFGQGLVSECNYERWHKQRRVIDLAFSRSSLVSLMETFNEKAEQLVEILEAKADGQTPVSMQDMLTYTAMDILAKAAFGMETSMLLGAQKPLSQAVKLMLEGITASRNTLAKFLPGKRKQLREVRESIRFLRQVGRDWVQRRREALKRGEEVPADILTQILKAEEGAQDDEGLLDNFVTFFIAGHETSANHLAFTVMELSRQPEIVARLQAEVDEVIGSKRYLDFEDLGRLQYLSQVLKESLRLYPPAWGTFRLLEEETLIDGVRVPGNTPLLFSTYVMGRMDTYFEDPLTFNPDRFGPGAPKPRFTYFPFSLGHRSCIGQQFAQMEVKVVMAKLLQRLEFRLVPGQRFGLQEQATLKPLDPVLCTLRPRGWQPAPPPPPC

Going from `Cc1ncc(CC2(C#N)CCN(C(=O)c3cccnc3-c3ccncn3)CC2)cn1` [Compound A203, 4-((2-methylpyrimidin-5-yl)methyl)-1-(2-(pyrimidin-4-yl)nicotinoyl)piperidine-4-carbonitrile] to `N#CC1(Cc2ccc(C3CC3)cc2)CCN(C(=O)c2cccnc2-c2ccncn2)CC1` [Compound A212, 4-(4-cyclopropylbenzyl)-1-(2-(pyrimidin-4-yl)nicotinoyl)piperidine-4-carbonitrile], the IC50 falls from > 1000 nM to < 100 nM.

Compared with `N#CC1(Cc2ccc(F)cc2)CCN(C(=O)c2cccnc2-c2ccnnc2)CC1` [Compound A200, 4-(4-fluorobenzyl)-1-(2-(pyridazin-4-yl)nicotinoyl)piperidine-4-carbonitrile], `N#CC1(Cc2ccc(F)cc2)CCN(C(=O)c2cccnc2-c2cncnc2)CC1` [Compound A66, 4-(4-fluorobenzyl)-1-(2-(pyrimidin-5-yl)nicotinoyl)piperidine-4-carbonitrile] is lower in IC50: > 1000 nM for the first, 100 to 1000 nM for the second.

Compared with `N#C[C@]1(Cc2ccc(F)cc2)CCN(C(=O)c2cccnc2-c2ccncn2)C1` [Compound A235, (R)-3-(4-fluorobenzyl)-1-(2-(pyrimidin-4-yl)nicotinoyl)pyrrolidine-3-carbonitrile], `N#CC1(Cc2ccc(OC(F)(F)F)cc2)CCN(C(=O)c2cccnc2-c2ccncn2)CC1` [Compound A217, 1-(2-(pyrimidin-4-yl)nicotinoyl)-4-(4-(trifluoromethoxy)benzyl)piperidine-4-carbonitrile] is lower in IC50: > 1000 nM for the first, < 100 nM for the second.

`N#CC1(Cc2ccc(F)cc2)CCN(C(=O)c2ccccc2-c2ccncn2)CC1` [Compound A229, 4-(4-fluorobenzyl)-1-(2-(pyrimidin-4-yl)benzoyl)piperidine-4-carbonitrile] and `N#CC1(Cc2ccc(F)cc2)CCN(C(=O)c2ccc(F)cc2-c2ccncn2)CC1` [Compound A220, 1-(4-fluoro-2-(pyrimidin-4-yl)benzoyl)-4-(4-fluorobenzyl)piperidine-4-carbonitrile] cannot be ordered by IC50: < 100 nM for the first, < 100 nM for the second.

`N#CC1(Cc2cccc(C(F)(F)F)c2)CCN(C(=O)c2cccnc2-c2ccncc2)CC1` [Compound A279, 1-([2,4′-bipyridine]-3-carbonyl)-4-(3-(trifluoromethyl)benzyl)piperidine-4-carbonitrile] and `N#CC1(Cc2ccc(C(F)(F)F)cc2)CCN(C(=O)c2cccnc2-c2ccncc2)CC1` [Compound A285, 1-([2,4′-bipyridine]-3-carbonyl)-4-(4-(trifluoromethyl)benzyl)piperidine-4-carbonitrile] cannot be ordered by IC50: < 100 nM for the first, < 100 nM for the second.

`N#CC1(Cc2cccc(C(F)(F)F)c2F)CCN(C(=O)c2cccnc2-c2ccncn2)CC1` [Compound A265, 4-(2-fluoro-3-(trifluoromethyl)benzyl)-1-(2-(pyrimidin-4-yl)nicotinoyl)piperidine-4-carbonitrile] and `N#CC1(Cc2ccccc2C(F)(F)F)CCN(C(=O)c2cccnc2-c2ccncn2)CC1` [Compound A262, 1-(2-(pyrimidin-4-yl)nicotinoyl)-4-(2-(trifluoromethyl)benzyl)piperidine-4-carbonitrile] cannot be ordered by IC50: < 100 nM for the first, < 100 nM for the second.

`N#CC1(Cc2cccc(C(F)(F)F)c2)CCN(C(=O)c2cccnc2-c2ccncn2)CC1` [Compound A264, 1-(2-(pyrimidin-4-yl)nicotinoyl)-4-(3-(trifluoromethyl)benzyl)piperidine-4-carbonitrile] and `N#CC1(Cc2ccc(Cl)cc2F)CCN(C(=O)c2cccnc2-c2ccncn2)CC1` [Compound A205, 4-(4-chloro-2-fluorobenzyl)-1-(2-(pyrimidin-4-yl)nicotinoyl)piperidine-4-carbonitrile] cannot be ordered by IC50: < 100 nM for the first, < 100 nM for the second.

`C[C@@H](c1ccc(C(F)(F)F)cc1F)C1(C#N)CCN(C(=O)c2cccnc2-c2ccncn2)CC1` [Compound A286, (R)-4-(1-(2-fluoro-4-(trifluoromethyl)phenyl)ethyl)-1-(2-(pyrimidin-4-yl)nicotinoyl)piperidine-4-carbonitrile] and `C[C@@H](c1ccc(F)cc1F)C1(C#N)CCN(C(=O)c2cccnc2-c2ccncn2)CC1` [Compound A242, (R)-4-(1-(2,4-difluorophenyl)ethyl)-1-(2-(pyrimidin-4-yl)nicotinoyl)piperidine-4-carbonitrile] cannot be ordered by IC50: < 100 nM for the first, < 100 nM for the second.

`N#CC1(Cc2cc(C(F)(F)F)ccc2F)CCN(C(=O)c2cccnc2-c2ccncc2)CC1` [Compound A283, 1-([2,4′-bipyridine]-3-carbonyl)-4-(2-fluoro-5-(trifluoromethyl)benzyl)piperidine-4-carbonitrile] and `N#CC1(Cc2ccc(F)c(C(F)(F)F)c2)CCN(C(=O)c2cccnc2-c2ccncc2)CC1` [Compound A278, 1-([2,4′-bipyridine]-3-carbonyl)-4-(4-fluoro-3-(trifluoromethyl)benzyl)piperidine-4-carbonitrile] cannot be ordered by IC50: < 100 nM for the first, < 100 nM for the second.

`CC[C@H](c1ccc(F)cc1)C1(C#N)CCN(C(=O)c2cccnc2-c2ccncn2)CC1` [Compound A215, (R)-4-(1-(4-fluorophenyl)propyl)-1-(2-(pyrimidin-4-yl)nicotinoyl)piperidine-4-carbonitrile] and `C[C@H](c1ccc(F)cc1)C1(C#N)CCN(C(=O)c2cccnc2-c2ccncn2)CC1` [Compound A45, (R)-4-(1-(4-fluorophenyl)ethyl)-1-(2-(pyrimidin-4-yl)nicotinoyl)piperidine-4-carbonitrile] cannot be ordered by IC50: < 100 nM for the first, < 100 nM for the second.

`N#CC1(Cc2ccc(F)cc2)CCN(C(=O)c2cccnc2-n2cncn2)CC1` [Compound A74, 1-(2-(1H-1,2,4-triazol-1-yl)nicotinoyl)-4-(4-fluorobenzyl)piperidine-4-carbonitrile] and `N#CC1(Cc2ccc(F)cc2)CCN(C(=O)c2cccnc2-n2ccnc2)CC1` [Compound A16, 1-(2-(1H-imidazol-1-yl)nicotinoyl)-4-(4-fluorobenzyl)piperidine-4-carbonitrile] cannot be ordered by IC50: > 1000 nM for the first, > 1000 nM for the second.

`N#CC1(Cc2ccccc2C(F)(F)F)CCN(C(=O)c2cccnc2-c2ccncc2)CC1` [Compound A275, 1-([2,4′-bipyridine]-3-carbonyl)-4-(2-(trifluoromethyl)benzyl)piperidine-4-carbonitrile] and `N#CC1(Cc2ccccc2F)CCN(C(=O)c2cccnc2-c2ccncc2)CC1` [Compound A12, 1-{[2,4′-bipyridine]-3-carbonyl}-4-[(2-fluorophenyl)methyl]piperidine-4-carbonitrile] cannot be ordered by IC50: < 100 nM for the first, < 100 nM for the second.

`C[C@@H](c1c(F)cccc1F)C1(C#N)CCN(C(=O)c2cccnc2-c2ccncc2)CC1` [Compound A246, (R)-1-([2,4′-bipyridine]-3-carbonyl)-4-(1-(2,6-difluorophenyl)ethyl)piperidine-4-carbonitrile] and `C[C@@H](c1c(F)cccc1F)C1(C#N)CCN(C(=O)c2cccnc2-c2ccncn2)CC1` [Compound A244, (R)-4-(1-(2,6-difluorophenyl)ethyl)-1-(2-(pyrimidin-4-yl)nicotinoyl)piperidine-4-carbonitrile] cannot be ordered by IC50: < 100 nM for the first, < 100 nM for the second.

`N#CC1(Cc2ccc(OC(F)(F)F)cc2)CCN(C(=O)c2cccnc2-c2ccncc2)CC1` [Compound A10, 1-([2,4′-bipyridine]-3-carbonyl)-4-(4-(trifluoromethoxy)benzyl)piperidine-4-carbonitrile] and `N#Cc1ccc(CC2(C#N)CCN(C(=O)c3cccnc3-c3ccncc3)CC2)cc1` [Compound A27, 1-([2,4′-bipyridine]-3-carbonyl)-4-(4-cyanobenzyl)piperidine-4-carbonitrile] cannot be ordered by IC50: < 100 nM for the first, < 100 nM for the second.

`N#CC1(Cc2c(F)cccc2F)CCN(C(=O)c2cccnc2-c2ccncc2)CC1` [Compound A274, 1-([2,4′-bipyridine]-3-carbonyl)-4-(2,6-difluorobenzyl)piperidine-4-carbonitrile] and `N#CC1(Cc2ccc(F)c(F)c2)CCN(C(=O)c2cccnc2-c2ccncc2)CC1` [Compound A69, 1-([2,4′-bipyridine]-3-carbonyl)-4-(3,4-difluorobenzyl)piperidine-4-carbonitrile] cannot be ordered by IC50: < 100 nM for the first, < 100 nM for the second.

`N#CC1(Cc2ccncc2)CCN(C(=O)c2cccnc2-c2ccncc2)CC1` [Compound A65, 1-([2,4′-Bipyridine]-3-carbonyl)-4-(pyridin-4-ylmethyl)piperidine-4-carbonitrile] and `N#CC1(Cc2cccnc2)CCN(C(=O)c2cccnc2-c2ccncc2)CC1` [Compound A72, 1-{[2,4′-bipyridine]-3-carbonyl}-4-[(pyridin-3-yl)methyl]piperidine-4-carbonitrile] fall in the same range of IC50: 100 to 1000 nM for the first, 100 to 1000 nM for the second.

`N#CC1(Cc2ccc(F)cc2C2CC2)CCN(C(=O)c2cccnc2-c2ccncn2)CC1` [Compound A230, 4-(2-cyclopropyl-4-fluorobenzyl)-1-(2-(pyrimidin-4-yl)nicotinoyl)piperidine-4-carbonitrile] and `N#CC1(Cc2ccc(Cl)cc2C2CC2)CCN(C(=O)c2cccnc2-c2ccncn2)CC1` [Compound A231, 4-(4-chloro-2-cyclopropylbenzyl)-1-(2-(pyrimidin-4-yl)nicotinoyl)piperidine-4-carbonitrile] cannot be ordered by IC50: < 100 nM for the first, < 100 nM for the second.

`N#CC1(Cc2ccc(F)cc2)CCN(C(=O)c2cc(C(F)(F)F)ccc2-c2ccncn2)CC1` [Compound A227, 4-(4-fluorobenzyl)-1-(2-(pyrimidin-4-yl)-5-(trifluoromethyl)benzoyl)piperidine-4-carbonitrile] and `CC(c1ccc(C(F)(F)F)cc1)C1(C#N)CCN(C(=O)c2cccnc2-c2ccncc2)CC1` (stereo in doubt) [Compound A268, (R)-1-([2,4′-bipyridine]-3-carbonyl)-4-(1-(4-(trifluoromethyl)phenyl)ethyl)piperidine-4-carbonitrile] cannot be ordered by IC50: < 100 nM for the first, < 100 nM for the second.

`N#CC1(CC2CCOCC2)CCN(C(=O)c2cccnc2-c2ccncn2)CC1` [Compound A48, 1-(2-(pyrimidin-4-yl)nicotinoyl)-4-((tetrahydro-2H-pyran-4-yl)methyl)piperidine-4-carbonitrile] and `N#CC1(CC2CC(F)(F)C2)CCN(C(=O)c2cccnc2-c2ccncn2)CC1` [Compound A54, 4-((3,3-difluorocyclobutyl)methyl)-1-(2-(pyrimidin-4-yl)nicotinoyl)piperidine-4-carbonitrile] fall in the same range of IC50: 100 to 1000 nM for the first, 100 to 1000 nM for the second.
